In one data set the test system is healthy women and men. To be noted: mild.
The nature of a further data set: clinical. The note with it: both, human, in vivo; for AUC(0-t): AUC0–tz (geoMean); for Cmax: Cmax (geoMean), healthy subjects.
For data set [1] the following is noted: cited from earlier work.
The conditions of data set [2]: repeated freeze/thaw cycles, short- (24 h) and long-term (30 day) storage; cited from earlier work.
The mark [3] stands for this setting: iv, 30 mg, plasma, single IV 30 mg fasudil over 30 min.

Counter-ions that a name gives are not always drawn. Like-named read-outs stand apart in the source and are kept apart here. Bounds are passed on as bounds.

Data on two compounds can be found in PMC10980656 (CNS Drugs, 2024).

Turning to `O=S(=O)(c1cccc2cnccc12)N1CCCNCC1` [fasudil, fasudil hydrochloride, reference compound], the “subjects with TEAE assessed as related to the IMP ("headache")” value with healthy women and men (IV treatment, one subject, recovered/resolved) amounted to 7.1%. Moreover, the “treatment emergent adverse events (TEAEs), oral treatment” value in the data set with healthy women and men (oral fasudil, "fatigue", not related to the IMP) is “One TEAE”. Besides, the time of peak concentration (Tmax) in “clinical” (iv, 30 mg) is 22.5 min; in “clinical” (po, 30 mg), 15 min. The compound further yielded an AUC(0-t) in the data set “clinical” (setting [3]) of 55.6 ng·h/mL. Further, the Cmax in the data set “clinical” (setting [3]) was 101 ng/mL.
Regarding `O=S(=O)(c1cccc2c(O)nccc12)N1CCCNCC1` [hydroxyfasudil], for the setting “both, human, in vivo”, the “AUC0–tz LS mean ratio (oral/IV treatment) point estimate (90% CI)” value was 64.52 (60.32–69.01) % and the “AUC0–∞ LS mean ratio (oral/IV treatment) point estimate (90% CI)” value is 64.76 (60.11–69.78) %. Besides, where the note is “linear mixed-effect model of the full analysis set”, the “hydroxyfasudil concentration after oral treatment compared with IV treatment” value was found to be 65%. For the same compound, the “Cmax LS mean ratio (oral/IV treatment) point estimate (90% CI)” value (linear mixed-effects model) is 102.97 (89.53–118.43) %. Moreover, the half-life in the data set “clinical” (iv) is 342 min. In “clinical” (iv, 30 mg), the Tmax is 45 min. In “clinical” (setting [3]), this compound had an AUC(0-t) of 439 ng·h/mL and a Cmax of 108 ng/mL. The compound further displayed an AUC(0-inf) in “clinical” (iv, 30 mg, AUC0–∞ (geoMean), plasma, single IV 30 mg fasudil over 30 min) of 460 ng·h/mL. Further, in the data set “clinical” (po, 30 mg), the Tmax was found to be 30 min and the half-life is 332 min. The serum half-life in data set [1] (after IV administration of fasudil) was 100 to 200 min. In addition, the “exposure (AUC)” value in data set [1] (after IV applications (30 mg fasudil over 30 min)) was 400 to 555 ng·h/mL. The “exposure (AUC)” value in data set [1] (investigational oral solution, 40 mg fasudil hydrochloride) was 300 ng·h/mL. For the same compound, the “sample stability (human plasma)” value in data set [2] is recorded as greater than 94%.

By Tmax is commonly meant the time from dosing to the highest level. As usually defined, the AUC(0-t) is exposure summed from dosing to a finite time, without extrapolation to infinity. The term Cmax denotes the peak of the concentration-time curve. By half-life is commonly meant the time in which the quantity being followed falls by half. A lower half-life goes with rapid decline. As a reminder, the AUC(0-inf) is the area under the concentration-time curve extrapolated to infinity. Read a low AUC(0-inf) as less exposure.
